# In ChEMBL document CHEMBL1201862, “PubChem BioAssay data set” (2004):
# Values joined by “and” are separate entries in the source; they are usually repeats but may differ in a detail not shown here. Equal values may be shown once. Where a name gives a salt, the structure may show the parent alone. Active and inactive are the calls of the source.
# Legend:
# cells = assay type: functional
# [1] = growth suppression of PTEN-null colon cells, dose response, cell-based, HCT116 PTEN knockout (AID 1047); assay type: functional;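 note: HCT116 colon tumor cells with PTEN knocked out; cells exposed to compound for 60 hours before readout; potency for loss of cell viability measured by luminescence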
# [2] = growth suppression of beta-catenin-knockout colon cells, dose response, cell-based, HCT116, human colon tumor (AID 1045); assay type: functional;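 note: HCT116 colon tumor cells with beta catenin knocked out; cells exposed to compound for 60 hours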
# Cytochrome P450 3A4 = Cytochrome P450 3A4 (Homo sapiens, UniProt P08684); settings: Potency;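 note: confirmatory qHTS run detecting inhibitors and substrates of CYP3A4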
# Cytochrome P450 3A4, sequence (P08684 whole entry): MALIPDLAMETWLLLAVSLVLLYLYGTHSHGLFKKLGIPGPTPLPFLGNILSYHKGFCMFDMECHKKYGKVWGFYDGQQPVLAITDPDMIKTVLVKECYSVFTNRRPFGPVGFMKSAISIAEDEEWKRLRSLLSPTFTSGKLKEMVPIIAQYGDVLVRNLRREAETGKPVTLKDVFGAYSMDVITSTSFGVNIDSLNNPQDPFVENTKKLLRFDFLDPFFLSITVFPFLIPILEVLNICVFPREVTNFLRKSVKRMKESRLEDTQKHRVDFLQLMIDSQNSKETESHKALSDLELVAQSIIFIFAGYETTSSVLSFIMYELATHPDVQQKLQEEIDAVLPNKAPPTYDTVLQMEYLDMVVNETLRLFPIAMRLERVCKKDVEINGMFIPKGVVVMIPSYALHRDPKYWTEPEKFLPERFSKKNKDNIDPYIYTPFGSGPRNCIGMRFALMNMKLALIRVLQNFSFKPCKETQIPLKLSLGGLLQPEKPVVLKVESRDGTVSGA
# Paired box protein Pax-8 = Paired box protein Pax-8 (Homo sapiens, UniProt Q06710); test: inhibitors of PAX8-driven TPO luciferase reporter, dose response, RMG-I cells, cherry-pick (AID 687027); assay type: functional, cell-based;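 note: luciferase reporter driven by Pax8 target thyroperoxidase promoter measured by SteadyGlo luminescence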
# Paired box protein Pax-8, sequence (Q06710 whole entry): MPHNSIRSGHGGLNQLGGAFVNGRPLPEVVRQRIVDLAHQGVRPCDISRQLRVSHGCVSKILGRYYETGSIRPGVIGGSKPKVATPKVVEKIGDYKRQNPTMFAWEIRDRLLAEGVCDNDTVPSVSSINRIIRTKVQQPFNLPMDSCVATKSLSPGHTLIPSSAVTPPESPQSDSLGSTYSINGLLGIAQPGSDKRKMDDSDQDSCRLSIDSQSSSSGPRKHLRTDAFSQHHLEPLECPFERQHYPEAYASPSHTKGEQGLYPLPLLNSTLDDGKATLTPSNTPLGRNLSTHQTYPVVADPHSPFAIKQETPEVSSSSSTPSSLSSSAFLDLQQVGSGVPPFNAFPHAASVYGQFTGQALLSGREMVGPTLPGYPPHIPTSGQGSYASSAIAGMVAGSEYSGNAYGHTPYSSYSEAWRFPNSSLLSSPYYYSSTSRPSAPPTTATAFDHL
# [3] = tested on: Streptococcus sp. 'group A'; test: growth inhibition of control SK(-) GAS strain, dose response, counter-screen for streptokinase expression inhibitor project, luminescence, kanamycin, BacTiterGlo, confirmation (AID 1900); assay type: functional, organism-based
# Streptokinase A = biological target: T1, Streptokinase A (Streptococcus pyogenes serotype M1, UniProt P10520); test: S. pyogenes streptokinase expression inhibitors, potency, dose response, plasminogen activation absorbance, OD405 (AID 1914); assay type: functional, Streptococcus pyogenes M1 GAS;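 note: secreted streptokinase activity via plasminogen activation per viability signal from cell pellet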
# T1 sequence (P10520 whole entry): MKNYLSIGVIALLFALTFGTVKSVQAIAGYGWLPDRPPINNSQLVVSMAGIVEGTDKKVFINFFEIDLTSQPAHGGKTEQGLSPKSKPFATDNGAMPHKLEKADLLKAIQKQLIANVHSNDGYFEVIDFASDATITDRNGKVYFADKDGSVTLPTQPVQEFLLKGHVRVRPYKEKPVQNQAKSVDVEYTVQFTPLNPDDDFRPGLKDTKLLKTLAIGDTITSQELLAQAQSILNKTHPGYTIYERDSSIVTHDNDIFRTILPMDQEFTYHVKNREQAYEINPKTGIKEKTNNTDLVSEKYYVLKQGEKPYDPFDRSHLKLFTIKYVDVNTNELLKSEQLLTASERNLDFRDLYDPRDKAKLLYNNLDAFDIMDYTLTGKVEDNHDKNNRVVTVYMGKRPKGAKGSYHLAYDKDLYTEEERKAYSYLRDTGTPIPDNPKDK
# Streptococcus = test: Group A Streptococcus viability loss, dose response, counter-screen for streptokinase expression inhibitor project, luminescence, BacTiterGlo (AID 1915); assay type: functional, organism-based;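 note: potency for reduction of bacterial viability or growth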
# Protein skinhead-1 = biological target: T2, Protein skinhead-1 (Caenorhabditis elegans, UniProt P34707); assay type: functional
# T2 sequence (P34707 whole entry): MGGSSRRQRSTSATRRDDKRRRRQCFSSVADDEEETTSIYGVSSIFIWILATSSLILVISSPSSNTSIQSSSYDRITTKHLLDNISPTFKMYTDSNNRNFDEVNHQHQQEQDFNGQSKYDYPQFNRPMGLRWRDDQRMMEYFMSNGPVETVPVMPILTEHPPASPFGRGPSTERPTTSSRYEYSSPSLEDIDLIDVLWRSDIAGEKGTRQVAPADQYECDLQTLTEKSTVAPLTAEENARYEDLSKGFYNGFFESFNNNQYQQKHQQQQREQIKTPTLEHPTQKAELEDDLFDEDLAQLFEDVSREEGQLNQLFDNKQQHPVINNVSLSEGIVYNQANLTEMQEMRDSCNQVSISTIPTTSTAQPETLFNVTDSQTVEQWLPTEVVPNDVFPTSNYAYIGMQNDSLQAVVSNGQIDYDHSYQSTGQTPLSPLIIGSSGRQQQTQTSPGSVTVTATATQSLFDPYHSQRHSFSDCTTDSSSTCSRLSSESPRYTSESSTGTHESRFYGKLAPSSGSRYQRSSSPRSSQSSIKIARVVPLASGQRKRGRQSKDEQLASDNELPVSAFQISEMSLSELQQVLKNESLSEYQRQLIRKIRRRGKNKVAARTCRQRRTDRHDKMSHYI
# [4] = Shn3 3'UTR reporter inhibitors, dose response, cell-based, Clone20 osteoblasts, firefly luciferase, cherry-picked (AID 624132); assay type: functional;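 note: firefly luciferase luminescence from reporter carrying the Shn3 3'UTR in osteoblasts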
# [5] = HepG2 cell cytotoxicity, dose response, cytotoxicity control for Shn3 inhibitor project, CellTiter-Glo, cherry-picked (AID 624134); assay type: functional, cell-based
# [6] = control 3'UTR Renilla luciferase suppression, dose response, counter-screen for Shn3 inhibitor project, cell-based, Clone20-Shn3RL, cherry-picked (AID 624133); assay type: functional
# [7] = inhibitors of intracellular T. cruzi replication, confirmation, NIH3T3 host cells, beta-gal luminescence (AID 2044); assay type: functional, cell-based;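 note: intracellular parasites grown in NIH/3T3 mouse fibroblasts as host cells; luminescent beta-galactosidase reporter signal from transgenic T. cruzi replicating inside host cells; inhibitors lower the luminescence signal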
# [8] = microbe, parasite or virus in culture; assay type: functional; settings: Mycobacterium tuberculosis
# [9] = cytotoxicity toward NIH3T3 fibroblasts, dose response, counter-screen, cell-based, ATP luminescence, mouse fibroblasts (AID 2010); assay type: functional;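 note: cells exposed to compound for about 90 hours before reading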
# [10] = inhibitors of HIV Env-driven cell fusion, dose response, cherry-pick (AID 652057); assay type: functional, cell-based
# [11] = inhibitors of clade B AD8 Env fusion, dose response, cell-based, cherry-pick (AID 652062); assay type: functional;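 note: luciferase signal from cell-cell fusion driven by HIV-1 clade B AD8 Env; potency is for inhibitors of fusion seen as a drop in luminescence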
# INS1 = test: beta cell apoptosis inhibitors, cytokine rescue, dose response, luminescence, retest (AID 449756); assay type: functional, cell-based; settings: Rattus norvegicus;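 note: cell death triggered by IL-1 beta plus TNF-alpha plus IFN-gamma mixture; protective hits raise ATP signal compared with cytokine alone wells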
smiles,measurement,setting,value
O=C(NNc1c(F)c(F)cc(F)c1F)c1cc2ccccc2oc1=O,IC50,cells,48 µM (active)
Cc1ccc(NC(=O)Cn2cc(S(=O)(=O)c3ccc(C)cc3)c(=O)c3cc(F)ccc32)cc1,EC50,[1],10.9 µM (active)
same,EC50,[2],9.08 µM (active)
COc1ccccc1/C=C/C1=CC2(C)CC1(C)C(c1ccccc1OC)CC2=O (stereo unspecified),AC50,Cytochrome P450 3A4,3.16 µM (inconclusive)
CCOc1ccc(NC(=O)Nc2cc(OCC(F)(F)F)cc(OCC(F)(F)F)c2)cc1,EC50,[1],16.9 µM (active)
same,EC50,[2],19.1 µM (active)
same,AC50,Paired box protein Pax-8,8.08 µM (active)
Cc1ccc(C)c(-c2nnc(NC(=O)COc3ccccc3)o2)c1,EC50,[3],1.18 µM (active)
same,EC50,Streptokinase A,> 150 µM (not active)
same,EC50,Streptococcus,23.1 µM (active)
same,IC50,cells,5.98 µM (active)
CCc1nc2oc3ccccc3c(=O)c2c(=O)n1-c1ccccc1,IC50,Protein skinhead-1,> 100 µM (inactive)
Cc1nc(NC2CCCCC2)c2nc(-c3ccccc3)n(CCN(C)C)c2n1,AC50,Cytochrome P450 3A4,25.1 µM (inconclusive)
COc1ccc(COC(=O)CCNC(=O)c2ccc(Cl)cc2)cc1,IC50,cells,> 50 µM (active)
CCc1ccc(C(=O)Nc2ccc3nc(C)ccc3c2)cc1,IC50,Protein skinhead-1,10.1 µM (active)
CN(C)c1ccc(C(=N)c2ccc(N(C)C)cc2)cc1,AC50,Cytochrome P450 3A4,15.8 µM (inconclusive)
O=C(NCc1ccc(Cl)cc1)C1CCN(c2nnc(N3CCCC3=O)s2)CC1,IC50,Protein skinhead-1,> 100 µM (inactive)
COc1ccc(CC(N)c2csc(NC(=O)NC(c3ccccc3)c3ccccc3)n2)cc1 (stereo unspecified),AC50,[4],6.4 µM (active)
same,AC50,[5],21.1 µM (active)
same,AC50,[6],19.3 µM (active)
CC(C)c1ccc(NC(=O)Nc2nc(C(N)COCc3ccccc3)cs2)cc1 (stereo unspecified),AC50,[4],5.99 µM (active)
same,AC50,[5],18.1 µM (active)
same,AC50,[6],10.8 µM (active)
O=C(O)C(Oc1ccc2ccccc2c1)c1ccccc1 (stereo unspecified),IC50,Protein skinhead-1,> 100 µM (inactive)
Cc1cccc(NC(=O)CSc2nc3ccccc3c(=O)n2C)c1C,AC50,[4],2.98 µM (active)
same,AC50,[5],39 µM (active)
same,AC50,[6],15.2 µM (active)
O=C1N=C(N/N=C/c2ccccn2)SC1Cc1cccc(SC(F)F)c1 (stereo unspecified),EC50,[7],0.528 µM (active)
same,CC50,[8],14.7 µM (active)
same,EC50,[9],4.95 µM (active)
C[C@@H]1CN([C@H](C)CO)C(=O)Cc2cc(NC(=O)Cc3ccccc3)ccc2O[C@@H]1CN(C)Cc1ccc(C(F)(F)F)cc1,AC50,Paired box protein Pax-8,11.8 µM (active)
COc1ccc(NC(=O)Nc2ccc3c(c2)C(=O)N([C@H](C)CO)C[C@H](C)[C@H](CN(C)S(=O)(=O)c2ccc(OC)cc2)O3)cc1,AC50,[10],2.08 µM (active)
same,AC50,[11],4.67 µM (active)
C[C@@H]1CCCCO[C@@H](CN(C)Cc2ccc(C(F)(F)F)cc2)[C@H](C)CN([C@H](C)CO)C(=O)c2cc(NS(=O)(=O)c3cccs3)ccc2O1,AC50,Paired box protein Pax-8,9.08 µM (active)
COC(=O)C1=C(C)N(Cc2ccccc2)[C@]23O[C@](C(=O)OC)(C(=O)N2C1c1ccccc1)C1C(=O)N(C)C(=O)C13 (stereo partly specified),AC50,Cytochrome P450 3A4,2.51 µM (inconclusive) and 3.16 µM (inconclusive)
CC(=O)O[C@H]1C[C@H](O[C@H]2[C@@H](O)C[C@H](O[C@H]3[C@@H](O)C[C@H](O[C@H]4CC[C@@]5(C)[C@H](CC[C@@H]6[C@@H]5CC[C@]5(C)[C@@H](C7=CC(=O)OC7)CC[C@]65O)C4)O[C@@H]3C)O[C@@H]2C)O[C@H](C)[C@H]1O[C@@H]1O[C@H](CO)[C@@H](O)[C@H](O)[C@H]1O,AC50,Paired box protein Pax-8,0.345 µM (active)
Cc1cc(O)cc(=O)o1,AC50,Cytochrome P450 3A4,39.8 µM (inconclusive)
CC(=O)Oc1cc(OC(C)=O)c2c(=O)cc(-c3ccc(OC(C)=O)c(OC(C)=O)c3)oc2c1,AC50,Cytochrome P450 3A4,0.794 µM (inconclusive)
CCCCC(CC)CN=C(N)N=C(N)NCCCCCCNC(N)=NC(N)=NCC(CC)CCCC (stereo unspecified) [ALEXIDINE HYDROCHLORIDE],CC50,[8],10.5 µM (active)
same,AC50,INS1,2.26 µM (active)
CC1(C)[C@@H](O)CC[C@]2(C)[C@H]3C(=O)C=C4[C@@H]5C[C@@](C)(C(=O)O)CC[C@]5(C)CC[C@@]4(C)[C@]3(C)CC[C@@H]12 [ENOXOLONE],AC50,Cytochrome P450 3A4,15.8 µM (inconclusive)
